Laboratory results: US5880121A, “4,5-dihydronaphth (1,2-c) isoxazoles and derivatives thereof” (Hoechst Marion Roussel Inc., priority 1996, dated 1999)

Experiments:
5-HT3 Receptor = biological target: T1, 5-HT3 Receptor (Rattus norvegicus, UniProt P35563); assay: ^3 H-GR 65630 Binding to Rat Entorhinal Cortex Membranes (affinity for 5-HT3 receptor); design: species or system Male Wistar rat; conditions: 0.4 nM [^3 H]-GR65630, pH 7.4, 30 minutes at 37° C., read-out: IC50, Affinity for 5-HT3 Receptor-Displacement of ^3 H-GR 65630
T1 construct: Male Wistar rats (15-200 g) were decapitated, the entorhinal cortex removed, weighed and homogenized; from tissue; host or cells: entorhinal cortex membranes of male Wistar rats
T1 sequence (P35563 24-483): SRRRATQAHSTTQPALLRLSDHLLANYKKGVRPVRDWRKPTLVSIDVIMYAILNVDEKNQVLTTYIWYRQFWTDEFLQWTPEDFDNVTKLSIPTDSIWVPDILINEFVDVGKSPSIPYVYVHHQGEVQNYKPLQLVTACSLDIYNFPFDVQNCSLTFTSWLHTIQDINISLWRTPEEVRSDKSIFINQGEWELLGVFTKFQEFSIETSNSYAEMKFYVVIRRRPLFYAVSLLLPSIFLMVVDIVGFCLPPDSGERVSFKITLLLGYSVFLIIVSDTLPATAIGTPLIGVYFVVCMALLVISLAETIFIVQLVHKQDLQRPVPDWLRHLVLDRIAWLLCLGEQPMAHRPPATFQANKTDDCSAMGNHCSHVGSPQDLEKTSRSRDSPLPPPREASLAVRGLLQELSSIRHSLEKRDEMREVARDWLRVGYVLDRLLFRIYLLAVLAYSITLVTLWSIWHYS
Protocol: In accordance with the above-discussed assay, a 0.05M of Krebs-Hepes buffer, pH 7.4 was prepared as follows:
q.s. to 1 liter with distilled H2 O, bring pH up to 7.4 (at 4° C.) with 5N NaOH
[^3 H]-GR65630 (87.0 Ci/mmol) was obtained from New England Nuclear.
GR38032F was obtained from Research Biochemical Inc. GR38032F was made up to a concentration of 500 μM in Krebs-Hepes buffer. 50 μl of […] were added to each of 3 tubes for determination of nonspecific binding (yields a final concentration of 100 μM in the 250 μl assay).
For most assays, a 50 μM stock solution was prepared in a suitable solvent and serially diluted with Krebs-Hepes buffer such that when 50 μl of drug is combined with the total 250 μl assay, a final concentration from 10^-5 to 10^-8 M was attained.
During tissue preparation, Male Wistar rats ([…]) were decapitated, the entorhinal cortex removed, weighed and homogenized in 10 volumes of ice cold 0.05M Krebs-Hepes buffer, pH 7.4. The homogenate is centrifuged at 48,000 g for 15 minutes at 4° C. The resulting pellet was rehomogenized in fresh Krebs-Hepes buffer and recentrifuged at 48,000 g for 15 minutes at 4° C. The final pellet was resuspended in the original volume of ice-cold Krebs-Hepes buffer. This yielded a final tissue concentration of 1.2 to 1.6 mg/ml with the addition of 100 μl to the assay.
In conducting the assay, the following volumes were utilized:
Sample tubes were kept on ice for additions, then vortexed and incubated with continuous shaking for 30 minutes at 37° C. At the end of the incubation period, the incubate is diluted with 5 ml of ice-cold Krebs-Hepes buffer and immediately vacuum filtered through Whatman GF/B filters, followed by two 5 ml washes with ice-cold Krebes-Hepes buffer. The filters are dried and counted in 10 ml of liquid scintillation cocktail. […] IC50 values were derived from computer-derived log-probit analysis.

5-HT3 = assay: 5 HT3 antagonist effects in the Bezold-Jarisch assay (reflex bradycardia, anesthetized Long-Evans rat); format: in vivo; conditions: ip, mean ± SEM, 2-3 rats/dose
Excerpt: Measurement of 5 HT3 Antagonist Effects in the Bezold-Jarisch Assay
This assay evaluates the effect of these compounds as 5-HT3 antagonists. They were examined in this assay on the coronary chemoreflex (Bezold-Jarisch) initiated by […] in vivo and characterized by leading inhibition of sympathetic outflow and increased activity of the cardiac vagus, leading to profound bradycardia and hypotension. The values obtained allow for continuous monitoring of arterial pressure and heart rate responses by these compounds over an extended period of time to determine their effecicy for 5 HT3 antagonism.
The catheters were prepared from Tygon tubing (45 cm length, […], ID) bonded to Teflon tubing (0.38 mm, ID). The mechanical bonding was achieved by insertion of the Teflon tubing (5 mm) into the dilated (ethylene dichloride, 3-4 min.) tip of the Tygon tubing. The junction was then sealed with vinyl glue, the catheters were soaked in cold sterilization solution (Amerse instrument germicide) and flushed thoroughly with saline prior to implantation.
Long Evans rats were anesthetized with sodium pentobarbital (50 mg/kg, ip). […] The catheters were then sutured to the underlying muscle and the free ends were passed subcutaneously and exteriorized through an incision on the top of the skull. The catheters were then secured to the skin with sutures, nitrofurazone powder was dusted over the area of the incision and the incision was closed using 3-O silk sutures. The catheters were flushed with saline and sealed with metal obturators. Patentcy of the two catheters was maintained by daily flushing with hepranized saline (0.2 ml of 100 U/ml). The rats were given 48 hours recovery prior to obtaining cardiovascular data.
In the anesthetized rat model the catheters were not exteriorized, data was collected acutely under the influence of general anesthesia.
The baseline data Arterial Blood Pressure (mm Hg, systolic/diastolic) and Heart Rate (beats/min) were recorded and the rats were injected with 5-HT (3-7.5 ug/kg, iv). The individual response to the 5-HT intervention was determined and the compound was then administered singlely or in an ascending dose range. The rats were challenged with 5-HT again at intervals postdosing and the peak response was recorded.

Compound	IC50 (5-HT3 Receptor) [nM]	% Inhibition of Bezold-Jarisch Reflex (5-HT3; 1.0 mg/kg) [%]	% Inhibition of Bezold-Jarisch Reflex (5-HT3; 3.0 mg/kg) [%]	% Inhibition of Bezold-Jarisch Reflex (5-HT3; 0.03 mg/kg) [%]	% Inhibition of Bezold-Jarisch Reflex (5-HT3; 0.05 mg/kg) [%]	% Inhibition of Bezold-Jarisch Reflex (5-HT3; 0.10 mg/kg) [%]	% Inhibition of Bezold-Jarisch Reflex (5-HT3; 10.0 mg/kg) [%]
OCCN1CCN(c2onc3c2CCc2ccccc2-3)CC1 [Ex. 3, 3-(4-(2-Hydroxyethyl)-1-piperazinyl)-4,5-dihydronaphth[1,2-c]isoxazole]	868	–	–	–	–	–	–
c1ccc2c(c1)CCc1c-2noc1N1CCNCC1 [Ex. 5, 3-(1-Piperazinyl)-4,5-dihydronaphth[1,2-c]isoxazole]	56	55.6 ± 9.7	89.3 ± 2.9	–	–	–	–
c1ccc2c(c1)CCc1c-2noc1N1CCCNCC1 [Ex. 4, 3-(1-Homopiperazinyl)-4,5-dihydronaphth[1,2-c]isoxazole]	83	–	–	58.6 ± 16.4	83.3 ± 8.2	93.0 ± 1.0	–
Cc1nccn1CC1CCc2c(c3ccccc3n2C)C1=O (stereo not shown) [Ondansetron, reference compound]	–	–	57.3 ± 9.7	–	–	–	94.6 ± 2.7
